Results as given in article PMC4205289, “Triptolide inhibits human immunodeficiency virus type 1 replication by promoting proteasomal degradation of Tat protein” (Retrovirology, 2014).
Like-named read-outs stand apart in the source and are kept apart here.

Legend:
HIV-1 LAI = test: PBMC antiviral assay, p24 ELISA; type: cell-based; details: for EC50: Human immunodeficiency virus 1, PBMC, 144 h, p24, day 6 post-infection; for selectivity ratio at 6 days: human, read-out: SI (selective index, CC50/EC50)
[1] = test system: HIV-1 molecular clone pNL4-3.Luc.R-E-; test: Transient gene expression assay, pNL4-3.Luc.R-E- transfected into Jurkat cells; type: cell-based; details: 24 h, 118-D-24 50 μM, flavopiridol 20 nM, triptolide 0.2 ~ 5 nM
Description: Figure 3 Triptolide inhibits HIV-1 transcription. (A) Time-of-addition analysis. TZM-bl cells were infected with HIV-1 (MOI = 0.5, strain NL4-3), and the virus inoculum was removed after 1 h of absorption. Test compounds (dextran sulfate at 10 μg/mL, zidovudine at 1 μM and triptolide at 5 nM) were added at the indicated time points after infection. Reporter signal was monitored at 48 h post-infection as a measure of viral replication. (B) The effect of triptolide on HIV-1 proviral DNA formation. Jurkat cells were infected with HIV-1 (MOI = 0.5, strain NL4-3) in the presence of the test compounds (INI 118-D-24, 50 μM; flavopiridol, 20 nM; and triptolide, 5 nM). Proviral DNA synthesis was determined by nested PCR analysis at 12 h post-infection. (C) The effect of triptolide on HIV-1 mRNA synthesis. Jurkat cells were infected with HIV-1(MOI = 0.5, strain NL4-3) in the presence of the test compounds (INI 118-D-24, 50 μM; flavopiridol, 20 nM; triptolide, 5 nM). Viral mRNA (the Gag region) content was determined by reverse-transcription PCR analysis 12 h post-infection. (D) Inhibition of luciferase expression encoded in pNL4-3.Luc.R-E- by tiptolide. […]
To further confirm that triptolide interferes with HIV-1 transcription, a transient gene expression assay was performed. […] At 24 h after transfection, viral gene transcription (indicated by luciferase activity) was determined. […]

CC(C)[C@]12O[C@H]1[C@@H]1O[C@]13[C@]1(O[C@H]1C[C@H]1C4=C(CC[C@@]13C)C(=O)OC4)[C@@H]2O [triptolide]
EC50 (HIV-1 LAI; PBMC donor A): 1.5 nM
EC50 (HIV-1 LAI; PBMC donor B): 1.2 nM
EC50 (HIV-1 LAI; PBMC donor C): 1.5 nM
selectivity ratio at 6 days (HIV-1 LAI; PBMC donor A): 8.4
selectivity ratio at 6 days (HIV-1 LAI; PBMC donor B): 12.8
selectivity ratio at 6 days (HIV-1 LAI; PBMC donor C): 7.5
effect on luciferase expression from transfected pNL4-3.Luc.R-E- [1]: inhibited reporter expression in a dose-dependent manner
